Measured values published in publication PMC6544269, “Identification of inhibitors of an unconventional Trypanosoma brucei kinetochore kinase” (PLoS ONE, 2019).

T1: TbKKT19 (Trypanosoma brucei, UniProt Q382T9)
T1 construct: gene Tb11.01.4250; recombinant His-tagged, full-length TbKKT19
T1 sequence (Q382T9 1-484): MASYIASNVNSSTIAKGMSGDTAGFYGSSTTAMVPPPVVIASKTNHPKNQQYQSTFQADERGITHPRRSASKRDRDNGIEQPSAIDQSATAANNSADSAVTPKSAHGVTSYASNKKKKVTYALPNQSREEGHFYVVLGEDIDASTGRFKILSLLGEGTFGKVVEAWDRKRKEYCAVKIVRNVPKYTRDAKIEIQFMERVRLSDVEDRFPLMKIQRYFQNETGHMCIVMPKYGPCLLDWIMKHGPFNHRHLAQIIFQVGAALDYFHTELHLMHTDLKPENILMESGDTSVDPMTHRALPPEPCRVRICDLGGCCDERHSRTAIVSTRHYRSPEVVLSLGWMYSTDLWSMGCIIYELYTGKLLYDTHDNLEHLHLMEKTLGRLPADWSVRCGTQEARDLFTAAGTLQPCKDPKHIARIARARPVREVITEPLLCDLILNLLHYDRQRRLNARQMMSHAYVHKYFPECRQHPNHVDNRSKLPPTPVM


Assays:
TbKKT19 [1] = target: T1, TbKKT19; assay: ADP Hunter Plus kinase assay, 10-point IC50, with technology counterscreen; repurchased and reconfirmed; format: biochemical
TbKKT19 [2] = target: T1, TbKKT19; assay: ADP Hunter Plus kinase assay, KKL peptide, […] ATP; potency shift at […] ATP; format: biochemical
purified protein = substrate: Nc1ncnc2c1ncn2[C@@H]1O[C@H](COP(=O)(O)OP(=O)(O)OP(=O)(O)O)[C@@H](O)[C@H]1O; assay: purified protein; format: biochemical, Trypanosoma brucei; conditions: ATP binding site

| Molecule | IC50 (TbKKT19 [1]) [µM] | IC50 (TbKKT19 [2]) [µM] | other results |
| --- | --- | --- | --- |
| CCN(Cc1ccc(/C=C2/C(=O)Nc3ccccc32)o1)S(C)(=O)=O [compound 1] | 18.9 |  |  |
| O=C(Nc1ccc2cn[nH]c2c1)c1c(Cl)cccc1Cl [compound 2] | 14.9 |  |  |
| COc1cc(O)c2c(c1)[C@H]1O[C@@H]1C[C@H](O)[C@H](O)C(=O)/C=C\C[C@H](C)OC2=O [hypothemycin] |  | 0.065 |  |
| CN[C@@H]1C[C@H]2O[C@@](C)([C@@H]1OC)n1c3ccccc3c3c4c(c5c6ccccc6n2c5c31)C(=O)NC4 [staurosporine] |  | 0.288 |  |
| TbKKT19 (Trypanosoma brucei brucei TREU927) (protein, recombinant His-tagged, full-length TbKKT19) MASYIASNVNSSTIAKGMSGDTAGFYGSSTTAMVPPPVVIASKTNHPKNQQYQSTFQADERGITHPRRSASKRDRDNGIEQPSAIDQSATAANNSADSAVTPKSAHGVTSYASNKKKKVTYALPNQSREEGHFYVVLGEDIDASTGRFKILSLLGEGTFGKVVEAWDRKRKEYCAVKIVRNVPKYTRDAKIEIQFMERVRLSDVEDRFPLMKIQRYFQNETGHMCIVMPKYGPCLLDWIMKHGPFNHRHLAQIIFQVGAALDYFHTELHLMHTDLKPENILMESGDTSVDPMTHRALPPEPCRVRICDLGGCCDERHSRTAIVSTRHYRSPEVVLSLGWMYSTDLWSMGCIIYELYTGKLLYDTHDNLEHLHLMEKTLGRLPADWSVRCGTQEARDLFTAAGTLQPCKDPKHIARIARARPVREVITEPLLCDLILNLLHYDRQRRLNARQMMSHAYVHKYFPECRQHPNHVDNRSKLPPTPVM |  |  | Km (purified protein): 102 µM |
